Results published in the NIST ThermoML archive (doi:10.1016/j.jct.2014.09.020).

Experiment: xn = mol fraction of the nth substance listed
Conditions: Liquid; for speed of sound: Frequency=4 MHz, Single path-length method; for mass density: Vibrating tube method

c1ccc2c(c1)CCCC2 [1,2,3,4-tetrahydronaphthalene] + CCCCCCCCCC
Conditions	mass density, 100 kPa [kg/m3]	speed of sound, 100 kPa [m/s]	speed of sound, 5000 kPa [m/s]	speed of sound, 10000 kPa [m/s]	speed of sound, 15000 kPa [m/s]	speed of sound, 20000 kPa [m/s]	speed of sound, 25000 kPa [m/s]
313.15 K, x2 = 0	952.93	1413	1434	1455	1475	1495	1513
313.15 K, x2 = 0.2501	877.12	1331	1356	1380	1402	1424	1445
313.15 K, x2 = 0.5005	813.93	1265	1293	1319	1346	1370	1394
313.15 K, x2 = 0.7502	760.5	1214	1244	1273	1302	1329	1354
323.15 K, x2 = 0	944.99	1374	1397	1419	1439	1459	1480
323.15 K, x2 = 0.2501	869.27	1291	1317	1342	1365	1389	1411
323.15 K, x2 = 0.5005	806.15	1228	1255	1283	1310	1336	1361
323.15 K, x2 = 0.7502	752.77	1175	1207	1238	1268	1296	1321
333.15 K, x2 = 0	937.04	1335	1359	1383	1402	1425	1445
333.15 K, x2 = 0.2501	861.39	1254	1281	1306	1331	1356	1379
333.15 K, x2 = 0.5005	798.33	1189	1220	1249	1276	1302	1327
333.15 K, x2 = 0.7502	744.98	1137	1174	1204	1234	1263	1292

c1ccc2c(c1)CCCC2 [1,2,3,4-tetrahydronaphthalene] + CCCCCCCCCCCCCCCC
Conditions	mass density, 100 kPa [kg/m3]	speed of sound, 100 kPa [m/s]	speed of sound, 5000 kPa [m/s]	speed of sound, 10000 kPa [m/s]	speed of sound, 15000 kPa [m/s]	speed of sound, 20000 kPa [m/s]	speed of sound, 25000 kPa [m/s]
313.15 K, x2 = 0	952.93	1413	1434	1455	1475	1495	1513
313.15 K, x2 = 0.2491	871.85	1346	1371	1395	1418	1441	1461
313.15 K, x2 = 0.4995	820.52	1315	1342	1367	1391	1414	1438
313.15 K, x2 = 0.75	785.3	1298	1326	1352	1378	1403	1427
323.15 K, x2 = 0	944.99	1374	1397	1419	1439	1459	1480
323.15 K, x2 = 0.2491	864.36	1311	1337	1361	1385	1408	1429
323.15 K, x2 = 0.4995	813.31	1278	1306	1333	1358	1383	1406
323.15 K, x2 = 0.75	778.26	1262	1291	1319	1345	1369	1393
333.15 K, x2 = 0	937.04	1335	1359	1383	1402	1425	1445
333.15 K, x2 = 0.2491	856.85	1274	1300	1326	1350	1374	1396
333.15 K, x2 = 0.4995	806.07	1242	1271	1298	1325	1350	1374
333.15 K, x2 = 0.75	771.21	1224	1253	1282	1309	1335	1361
